According to patent publication US10189794B2, “Heteroaryl compounds and uses thereof” (Celgene CAR LLC, priority 2013, dated 2019):
“Also recorded” adds a separate entry of the source. Read-outs that look alike come from different tables or passages of the source.

Legend:
FGFR4-WT = FGFR4-WT (Homo sapiens (Human), UniProt P22455); assay: Omnia assay for potency assessment against FGFR4 enzyme; format: biochemical
Experimental: A 10× stock solution of FGFR4-WT (PR4380C), (from Invitrogen, Carlsbad, Calif.) corresponding to method a in Table 7, was prepared as described below. Alternatively, a 10× stock solution of FGFR4-WT (F01-11G), (SignalChem, Richmond, BC) corresponding to method b in Table 7, was prepared as described below. A solution of 1.4×ATP (AS001A) and 5×Tyr-Sox conjugated peptide substrate (KNZ3101) were prepared in IX kinase reaction buffer consisting of 20 mM Tris, pH 7.5, 5 mM MgCl2, 1 mM EGTA, 5 mM β-glycerophosphate, 5% glycerol (10× stock, KB002A) and 0.2 mM DTT (DS001A). […] The serially diluted compounds were prepared on a Tecan EVO100. A second addition of 10 μl of Tyr-Sox FGFR4 substrate was added to each well and the kinase reactions were started with the addition of 35 μL of 1.4×ATP. The reactions were monitored every 71 seconds for 240 minutes at λex360/λem485 in a Synergy plate reader from BioTek (Winooski, Vt.).

MDA-MB-453 cells = assay: Cell proliferation, MDA-MB-453 (CellTiter Glo); format: cell-based; conditions: Homo sapiens; MDA-MB-453; 96 hr; read-out: Cell Proliferation GI50 (nM) MDA
Experimental: For both MDA-MB-453 and Huh7 cells the starting density was 5000 cells per well. The cells were allowed to settle down for 4 hr and were then treated with 5, 1.25, 0.31, 0.078, 0.020 or 0.005 μM of test compound for: 96 hr for MDA-MB-453 and 120 hr for Huh7 cells. Cell viability was determined by CellTiter Glo (Promega, Madison, Wis.) and the results were converted to cell numbers using a standard curve. The growth inhibition (GI50) values were determined by Graph Pad Prism.
The results of these experiments show the ability of compounds to inhibit cell growth in FGFR dependant cell lines and are depicted in Table 8, in the columns titled “Cell Proliferation GI50 (nM)”. MDA-MB-453 cell results fall under the heading “MDA” and Huh7 cell results fall under the heading “Huh.”

Huh7 cells = assay: Cell proliferation, Huh7 (CellTiter Glo); format: cell-based; conditions: Homo sapiens, Huh-7; Huh7; 120 hr; read-out: Cell Proliferation GI50 (nM) HUH
Experimental: The growth inhibition (GI50) values were determined by Graph Pad Prism.

[1] = target: T1, pFGFR4 in MDA-MB-453 cells (Homo sapiens (Human), UniProt P22455, Y367C); assay: Washout experiment (duration of pFGFR4 inhibition); format: cell-based; conditions: 1000-2000 nM for 1 hr, washed, up to 24 hr
T1 sequence (P22455 22-802 Y367C): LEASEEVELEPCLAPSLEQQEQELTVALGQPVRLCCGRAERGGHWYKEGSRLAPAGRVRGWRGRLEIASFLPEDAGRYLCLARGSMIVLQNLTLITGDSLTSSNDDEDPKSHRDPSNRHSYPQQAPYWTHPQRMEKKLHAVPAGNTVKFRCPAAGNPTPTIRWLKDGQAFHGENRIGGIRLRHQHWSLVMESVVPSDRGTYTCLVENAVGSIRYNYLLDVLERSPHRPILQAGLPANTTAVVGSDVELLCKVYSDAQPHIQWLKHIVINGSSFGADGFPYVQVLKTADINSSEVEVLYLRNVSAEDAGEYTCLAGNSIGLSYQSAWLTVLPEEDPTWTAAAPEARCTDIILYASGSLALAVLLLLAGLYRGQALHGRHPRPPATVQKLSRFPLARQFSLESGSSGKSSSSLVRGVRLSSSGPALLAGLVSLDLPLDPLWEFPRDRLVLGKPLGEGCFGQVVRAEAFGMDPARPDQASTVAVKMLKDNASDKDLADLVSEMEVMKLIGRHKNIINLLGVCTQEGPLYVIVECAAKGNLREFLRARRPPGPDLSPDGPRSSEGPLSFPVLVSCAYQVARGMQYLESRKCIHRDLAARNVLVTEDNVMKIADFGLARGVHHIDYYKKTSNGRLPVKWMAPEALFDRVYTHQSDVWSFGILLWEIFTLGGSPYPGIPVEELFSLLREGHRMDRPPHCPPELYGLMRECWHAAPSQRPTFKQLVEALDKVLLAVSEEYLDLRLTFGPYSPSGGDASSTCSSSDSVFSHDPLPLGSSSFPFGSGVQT
Experimental: The cells were allowed to settle down for 4 hrs and were then maintained in low-serum (0.1% FBS) media overnight.
The following morning, the media was removed and the cells were treated with 1000-2000 nM of test compound in low-serum media for 1 hr. The cells were washed free of test compound (3×) with PBS (Invitrogen). One set of cells was immediately lysed as indicated above as the 0 hr time point. The remaining cells were incubated with the appropriate complete growth media (10-20% FBS) for 1, 2, 4, 8, 16 (in certain circumstances) and 24 hr. DMSO (0.5%) controls were collected at all time points.

pFGFR4 in Huh7 cells = pFGFR4 in Huh7 cells (Homo sapiens (Human), UniProt P22455); assay: FGFR4 signaling (phospho-FGFR4) in Huh7 cells, MSD; format: cell-based; conditions: Meso Scale assay (MSD), 1 hr treatment, read-out: Signaling EC50 (nM) pFGFR4 (Huh)
pFGFR4 in Huh7 cells, sequence (P22455 22-802): as the sequence (P22455 22-802 Y367C) above, with C346Y counted along it

[2] = target: FGFR4 in MDA-MB-453 cells (Homo sapiens (Human), UniProt P22455, Y367C); assay: Target occupancy assay with biotinylated covalent probe I-127; format: cell-based; conditions: MDA-MB-453 lysate; 2 μM biotinylated probe I-127
FGFR4 in MDA-MB-453 cells, sequence (P22455 22-802 Y367C): as the sequence (P22455 22-802 Y367C) above
Experimental: In order to assess free FGFR4 protein a biotinylated covalent probe was utilized. […] The reaction was incubated for 2 hr at room temperature. The samples and probe mixture were transferred to a FGFR4-coated MSD plate for 2 hr at room temperature. MSD signals were obtained with an anti-streptavidin Sulfo-tag (Meso Scale) antibody for 1 hr at room temperature.
If a compound completely (100%) covalently modies FGFR4 no free FGFR4 should be available for covalent modification by the biotinylated probe and subsequent binding to streptavidin and detection.

[3] = target: T1, pFGFR4 in MDA-MB-453 cells; assay: FGFR4 signaling (phospho-FGFR4) in MDA-MB-453 cells; format: cell-based; conditions: 1 hr treatment
Experimental: Huh7 cells were grown in DMEM (Invitrogen, Carlsbad, Calif.) supplemented with 10% FBS (Invitrogen) and 1% Penicillin-Streptomycin (P/S, Lonza, Walkersville, Md.).
For the MSD and ELISA assays, total FGFR4 antibodies were obtained from R&D Systems (Minneapolis, Minn.) and used at 1:500. For the immunoblotting (Western blotting) assay, total FGFR4 antibody was obtained from Santa Cruz (Santa Cruz, Calif.) and used at 1:1000. Phospho-FGFR antibodies were obtained from Cell Signaling (Danvers, Mass.) or R&D Systems and used at 1:1000. The phopho-FGFR antibody from Cell Signaling was used for immunoblotting, whereas the phopho-FGFR antibody from R&D was used for MSD and ELISA assays. Secondary antibodies were used at 1:10,000. The goat anti-mouse IgG IRDye 800CW antibody was obtained from LiCor Biosciences (Lincoln, Nebr.) and the goat anti-rabbit IgG Alexa Fluor 680 was obtained from Invitrogen. The anti-rabbit Sulfo-tag and anti-streptavidin Sulfo-tag antibodies was obtained from Meso Scale Discovery (Gaithersburg, Md.), and were used at 1:1000 and 1:5000, respectively.
For MDA-MB-453 cells signaling, cells were grown in 96-well poly-D-lysine plates (BD Bioscience, San Jose, Calif.) to 90% confluence, and were then incubated in low-serum (0.1% FBS) media for 16-18 hr. […] After treatment, the cells were washed with cold PBS (Invitrogen) and were immediately lysed by freeze/thawing 3× in 32 μL of cold Cell Extraction Buffer (Invitrogen) which was supplemented with Complete Protease inhibitors (Roche, Indianapolis, Ind.) and PhosphoSTOP (Roche) phosphatase inhibitors.
Phospho-protein signals were quantitated using Odyssey Infrared Imaging (Li-Cor Biosciences).
To assess phospho-FGFR signaling, the blots were probed with anti-Phospho-FGFR (Y653/Y654) and total anti-FGFR antibodies. The phospho-FGFR signal was normalized to total FGFR expression for each sample. […] The normalized data was fitted using a sigmoidal curve analysis program (Graph Pad Prism version 5) with variable Hill slope to determine the EC50 values.
After treatment, the cells were washed with cold PBS (Invitrogen), and were immediately lysed by freeze/thawing 3× in 32 μL of cold Cell Extraction Buffer (Invitrogen), which was supplemented with Complete Protease inhibitors (Roche) and PhosphoSTOP (Roche) phosphatase inhibitors.
MSD plates (Meso Scale Discovery) were coated with total FGFR-4 antibodies overnight at 4° C. A lysate (25 μL) was added to the MSD plate overnight at 4° C. The MSD signals were obtained by incubating with a phospho-FGFR antibody (R&D Systems) and an anti-rabbit sulfo-tag antibody (Meso Scale), for 2 hr at room temperature. […] The data was fitted using a sigmoidal curve analysis program (Graph Pad Prism version 5) with variable Hill slope to determine the EC50 values.
MDA-MB-453 cells were grown in 96-well poly-D-lysine plates (BD Bioscience, San Jose, Calif.) to 90% confluence. The cells were then incubated in low-serum (0.1% FBS) media for 16-18 hr. […] After treatment, the MDA-MB-453 cells were washed with cold PBS (Invitrogen) and were immediately lysed by freeze/thawing 3× in 32 μL of cold Cell Extraction Buffer (Invitrogen), which was supplemented with Complete Protease inhibitors (Roche) and PhosphoSTOP (Roche) phosphatase inhibitors.
Nunc-immuno plates (96-well; Sigma, St. Louis, Mo.) were coated with total FGFR-4 antibodies overnight at 4° C. A lysate (25 μL) was added to the plate for 2 hr at room temperature. A phospho-FGFR detection antibody (100 μL) was added per well for 2 hr at room temperature, followed by a goat anti-rabbit HRP antibody (100 μL) for 45 min. […] The data was fitted using a sigmoidal curve analysis program (Graph Pad Prism version 5) with variable Hill slope to determine the EC50 values.

[4] = method a: Invitrogen FGFR4-WT 10 nM, ATP 300 uM, Y10-Sox 10 uM, read-out: FGFR4 IC50
[5] = Method A immunoblotting (Western blotting)

FGFR4-WT, sequence (P22455 22-802): as the sequence (P22455 22-802 Y367C) above, with C346Y counted along it

Row | Structure (SMILES) | IC50 (FGFR4-WT; [4]) [µM] | GI50 (MDA-MB-453 cells) [nM] | GI50 (Huh7 cells) [nM] | EC50 (pFGFR4 in Huh7 cells) [nM] | EC50 [2] [µM] | further results
1 | C=CC(=O)NC1CCCCC1Nc1ncc2c(n1)N(Cc1cscn1)C(=O)N(c1c(Cl)c(OC)cc(OC)c1Cl)C2 (racemic) [I-69] | < 0.1 | 101 to 500 | 501 to 999 | – | – | duration of action against pFGFR4 signalling after washout [1]: prolonged inhibition of autophosphorylation of FGFR4; also recorded: prolonged duration of action
2 | C=CC(=O)NC1CCCCC1Nc1ncc2c(n1)N(CCF)C(=O)N(c1cc(OC)cc(OC)c1Cl)C2 (racemic) [I-111] | 0.501 to 0.999 | – | > 1000 | > 1000 | – | –
3 | C=CC(=O)NC1CCCCC1Nc1ncc2c(n1)N(Cc1cccnc1)C(=O)N(c1c(Cl)c(OC)cc(OC)c1Cl)C2 (racemic) [I-35] | < 0.1 | 101 to 500 | 501 to 999 | – | 0.101 to 0.5 | –
4 | C=CC(=O)NC1CCCCC1Nc1ncc2c(n1)N(C1CC1)C(=O)N(c1c(Cl)c(OC)cc(OC)c1Cl)C2 (racemic) [I-68] | 0.101 to 0.5 | > 1000 | > 1000 | 501 to 999 | – | –
5 | C=CC(=O)Nc1ccccc1Nc1ncc2c(n1)N(Cc1ccccc1)C(=O)N(c1c(Cl)c(OC)cc(OC)c1Cl)C2 [I-3] | – | < 100 | < 100 | – | < 0.1 | EC50 ([3]; Method C ELISA): < 100 nM
6 | C=CC(=O)NC1CCCCC1Nc1ncc2c(n1)N(CC(F)F)C(=O)N(c1c(Cl)c(OC)cc(OC)c1Cl)C2 (racemic) [I-105] | 0.101 to 0.5 | – | 501 to 999 | 101 to 500 | – | –
7 | C=CC(=O)NC1CCCCC1Nc1ncc2c(n1)N(Cc1ccccc1)C(=O)N(c1c(Cl)c(OC)cc(OC)c1Cl)C2 (racemic) [I-63] | – | 101 to 500 | 101 to 500 | – | 0.101 to 0.5 | IC50 (FGFR4-WT): < 0.1 µM
8 | C=CC(=O)N[C@H]1CCCC[C@H]1Nc1ncc2c(n1)N(Cc1cscn1)C(=O)N(c1c(Cl)c(OC)cc(OC)c1Cl)C2 [I-114] | – | 101 to 500 | 101 to 500 | – | 0.101 to 0.5 | IC50 (FGFR4-WT; read-out: FGFR4 IC50): < 0.1 µM
9 | C=CC(=O)NC1CCCCC1Nc1ncc2c(n1)N(C)C(=O)N(c1cc(OC)cc(OC)c1Cl)C2 (racemic) [I-76] | 0.501 to 0.999 | – | > 1000 | > 1000 | – | –
10 | C=CC(=O)Nc1cc(N2CCN(C(C)=O)CC2)ccc1Nc1ccc2c(c1)N(C)C(=O)N(c1cc(OC)cc(OC)c1)C2 [I-55] | < 0.1 | 101 to 500 | 101 to 500 | – | 0.101 to 0.5 | –
11 | C=CC(=O)Nc1ccccc1Nc1ncc2c(n1)N(C)C(=O)N(c1c(Cl)c(OC)cc(OC)c1Cl)C2 [I-2] | – | < 100 | 101 to 500 | – | – | EC50 [3, 5]: < 100 nM
12 | C=CC(=O)Nc1cccc(Nc2ncc3c(n2)N(Cc2cccc(NC(=O)CC)c2)C(=O)N(c2c(Cl)c(OC)cc(OC)c2Cl)C3)c1 [I-232] | – | – | – | – | – | IC50 (FGFR4-WT; read-out: FGFR4 IC50): < 0.1 µM; EC50 [3, 5]: < 100 nM
13 | C=CC(=O)NCc1ccccc1Nc1ncc2c(n1)N(Cc1cccc(NC(=O)CC)c1)C(=O)N(c1c(Cl)c(OC)cc(OC)c1Cl)C2 [I-179] | – | 101 to 500 | 101 to 500 | – | – | EC50 [3, 5]: < 100 nM
14 | C=CC(=O)Nc1ccccc1Nc1ncc2c(n1)N(Cc1cccc(NC(=O)CC)c1)C(=O)N(c1c(Cl)c(OC)cc(OC)c1Cl)C2 [I-1] | < 0.1 | < 100 | 101 to 500 | < 100 | < 0.1 | duration of action against pFGFR4 signalling after washout [1]: prolonged duration of action; also recorded: has PDA
15 | C=CC(=O)Nc1ccc(Nc2ncc3c(n2)N(Cc2cccc(NC(=O)CC)c2)C(=O)N(c2c(Cl)c(OC)cc(OC)c2Cl)C3)cc1 [I-233] | – | – | – | – | – | IC50 (FGFR4-WT; method b: SignalChem FGFR4-WT 2.5 nM, ATP 250 uM, Y10-Sox 10 uM, read-out: FGFR4 IC50): < 0.1 µM; EC50 [3, 5]: < 100 nM
16 | C=CC(=O)Nc1cc(N(C)CCOC)ccc1Nc1ncc2c(n1)N(Cc1ccccc1)C(=O)N(c1cc(OC)cc(OC)c1)C2 [I-13] | – | 101 to 500 | > 1000 | – | 0.101 to 0.5 | –
17 | CCC(=O)Nc1cccc(CN2C(=O)N(c3c(Cl)c(OC)cc(OC)c3Cl)Cc3cnc(Nc4ccccc4NC(=O)CC)nc32)c1 [I-234] | – | > 1000 | – | – | > 1 | EC50 [3, 5]: 101 to 500 nM; duration of action against pFGFR4 signalling after washout [1]: does not show prolonged duration of action; also recorded: does not have PDA
18 | C=CC(=O)NC1CCCCC1Nc1ncc2c(n1)N(CCOC)C(=O)N(c1c(Cl)c(OC)cc(OC)c1Cl)C2 (racemic) [I-61] | < 0.1 | 101 to 500 | 501 to 999 | 101 to 500 | 0.101 to 0.5 | –
19 | C=CC(=O)Nc1ccccc1CNc1ncc2c(n1)N(Cc1cccc(NC(=O)CC)c1)C(=O)N(c1c(Cl)c(OC)cc(OC)c1Cl)C2 [I-180] | – | – | – | – | – | EC50 ([3]; Method C ELISA): < 100 nM
20 | C=CC(=O)Nc1ccccc1Nc1ncc2c(n1)N(C)C(=O)N(c1cc(OC)cc(OC)c1)C2 [I-5] | – | 501 to 999 | > 1000 | – | 0.101 to 0.5 | –
21 | C=CC(=O)Nc1ccccc1Nc1ncc2c(n1)N(Cc1cccnc1)C(=O)N(c1cc(OC)cc(OC)c1)C2 [I-44] | – | 101 to 500 | > 1000 | – | 0.101 to 0.5 | –
22 | C=CC(=O)NC1CCCCC1Nc1ncc2c(n1)N(CC#N)C(=O)N(c1c(Cl)c(OC)cc(OC)c1Cl)C2 (racemic) [I-47] | < 0.1 | – | > 1000 | 501 to 999 | – | –
23 | C=CC(=O)NC1CCCCC1Nc1ncc2c(n1)N(CC(F)F)C(=O)N(c1cc(OC)cc(OC)c1Cl)C2 (racemic) [I-107] | > 1 | – | > 1000 | > 1000 | – | –
